The values that follow come from PubChem BioAssay AID1508591.

For the data set the following is noted: rat; liver microsomes; pH 7.4; 15.0 min; 1.0 µM.
For the molecule `CNC(=O)c1ccc(-c2cnc3cnc(C(=O)N(C)c4ccc(Cl)cc4)cn23)cc1`, the half-life (usually the time needed for the level to fall by half in the phase considered) was over 30 min.
With `COCCNCc1ccc(-c2cc3nccc(Oc4ccc(NC(=O)C5(C(=O)Nc6ccc(F)cc6)CC5)cc4F)c3s2)nc1` the figure was 14.8 min; with `CCC(CC)c1cc([C@H]2CN3CC[C@H]2C[C@@H]3CNC(=O)Cc2cccs2)nc(-c2ccncc2)n1`, 2.78 min; with `O=C1CCCC2=C1C(c1[nH]ncc1Cl)N=C(Nc1nc3ccccc3o1)N2` (configuration not stated), 13.5 min.
Consider `CCOc1ccc(CCNC(=O)c2cc3cnccc3n2Cc2cccc(C)n2)cc1OCC`, for which the half-life was found to be 29 min.
Turning to `COc1ccc2c(c1)/C(=C/c1cnc[nH]1)C(=O)N2`, the half-life is over 30 min.
With `Cc1ccc(S(=O)(=O)Nc2cnccc2C(=O)Nc2ccccc2)cc1` the figure was 2.6 min.
For the molecule `COc1ccc(C2C=C(c3ccc(Cl)cc3)Nc3nc(-c4ccc(Cl)cc4)nn32)cc1` (configuration not stated), the half-life was over 30 min.
`CCOC(=O)C1CCN(c2nc(-c3ccc(Br)cc3)cs2)CC1` came in with a half-life of 2.19 min.
With `COc1ccc(NC(=O)c2[nH]c(C)c(C(C)=O)c2C)cc1S(=O)(=O)N1CCCCCC1` the figure was 3 min; with `COc1cccc(-c2csc(N3CCC(C(N)=O)CC3)n2)c1`, 1.33 min; with `COC(=O)C1=C(C)NC(C)=C(C(=O)O[C@@H]2CCCN(Cc3ccccc3)C2)[C@@H]1c1cccc([N+](=O)[O-])c1`, 1.3 min.
Regarding `CS(=O)(=O)N1CCN(c2nc(-c3ccc(Br)cc3)cs2)CC1`, the half-life was over 30 min.
Then `C[C@@]1(c2ncncc2F)NC(=O)c2cc(-c3cn[nH]c3)ccc21`, with over 30 min; and `COc1ccccc1-c1cc2c(ccn2C)c(C(=O)NCC2CCN(C)C(=O)C2)n1` (configuration not stated), with over 30 min.
`O=C(NC1CC1)c1nc(-c2cccnc2)c2ccccn12` came in with a half-life of 21.8 min.
Then `Cc1cccc(-n2cnc3cc(C(=O)N4CCC(Br)CC4)ccc32)c1`, with 2.5 min.
With `Cc1ccc(S(=O)(=O)Nc2cnccc2C(=O)Nc2nc(-c3ccccc3F)cs2)cc1` the figure was 9.9 min; with `O=C(c1ccc2c(c1)ncn2-c1cccc(Cl)c1)N1CCCCC1`, 5.83 min.
With `Cc1cc(NS(=O)(=O)c2ccc(NC(=O)Cc3ccc(Cl)c(Cl)c3)cc2)n(C)n1` the figure was 13 min; with `COc1ccc(Cl)cc1C(=O)Nc1nc(-c2ccccc2)cs1`, 24 min; with `Cc1cn2nc(-c3nc(C4CCCN(C(=O)c5ccccc5)C4)no3)cc2c(=O)[nH]1` (configuration not stated), 13.6 min.
Regarding `N=c1c2c(ncn1-c1ccccc1)Oc1ccc3ccccc3c1C2c1ccc2c(c1)CCO2` (configuration not stated), the half-life amounted to 10.1 min.
As to `CCCCCCCCc1ccc(CCC(N)(CO)CO)cc1`, the half-life was over 30 min.
With `O=S(=O)(Nc1cccc(C(F)(F)F)c1)c1ccc(NS(=O)(=O)c2ccc3c(c2)OCCO3)cc1` the figure was 20 min; with `O=C(Nc1nnc(-c2ccc(Cl)cc2)o1)c1ccc(Cl)c(Cl)c1`, 3.9 min; with `COCCCOc1ccnc(CS(=O)c2nc3ccccc3[nH]2)c1C` (configuration not stated), 8.83 min.
With `COC(=O)c1ccc2nc(NC3=NC(c4[nH]ncc4Cl)C4=C(CCCC4=O)N3)oc2c1` (configuration not stated) the figure was 5.9 min; with `Cc1cc(C)nc(NC(=S)N2CCN(Cc3ccc(C(F)(F)F)cc3)CC2)c1`, over 30 min; with `COc1cc(C2c3cc(O)c(OC)cc3CC3C(=O)OCC32)ccc1O` (configuration not stated), 21.1 min.
Then `Cc1n[nH]c(C)c1CCc1nc2c3ccccc3nc(SCC(=O)Nc3ccc(F)cc3)n2n1`, with 2.67 min; and `O=C(NC1CCCN(c2cc(-c3ccc(F)cc3)[nH]n2)C1)c1ccc2ncccc2c1` (configuration not stated), with 16.2 min.
Take `Cc1cnc(-c2ccccc2C(F)F)nc1NCC1CN(c2cnccn2)C1`: the half-life was determined as 1.8 min.
In turn, `CCOC(=O)C1CCN(c2ncnc3c2c(-c2ccccc2)cn3-c2ccccc2)CC1` came in with a half-life of 1.69 min.
With `COc1ccc(-n2c(C)c(C(C)=O)c3cc(OC(=O)COc4ccccc4)ccc32)cc1` the figure was 10.4 min; with `O=C(Nc1ccc(S(=O)(=O)Nc2nccs2)cc1)c1cc(-c2ccccc2)nc2ccccc12`, over 30 min.
With `C=C1C(=O)O[C@H]2[C@@H]1CCC(C)=CCC[C@@]1(C)O[C@@H]21`, the half-life was found to be 16.7 min.
The molecule `O=C(Nc1cccc(Cc2ccccc2)c1)c1ccc(-c2cccc([N+](=O)[O-])c2)o1` had a half-life of 2.5 min.
With `COc1ccc(-n2nc(C3CCCN(C(=O)Cc4ccc(F)cc4)C3)[nH]c2=O)cc1` (configuration not stated) the figure was 8.48 min.
Then `Cc1cc(C)c(CNC(=O)c2nc(-c3ccc(CN(C)C)cc3)cc3c2ccn3C(C)C)c(=O)[nH]1`, with over 30 min; and `O=C(CCc1ccccc1)NC(c1cccs1)c1cc(Cl)c2cccnc2c1O` (configuration not stated), with 2.14 min; and `Cc1ccc(S(=O)(=O)Nc2ccc(C(=O)Nc3nc(-c4ccccc4)cs3)cc2Cl)cc1`, with 4 min.
For the molecule `Cc1cnc(SCc2ccccn2)nc1C1CCCN(C(=O)c2scc3c2CCCC3)C1` (configuration not stated), the half-life came to 1.01 min.
Then `Cc1ccc([S+](=O)([O-])n2cc(Cc3ccc(-c4ccccc4)cc3)c3ccccc32)cc1`, with 22 min; and `CC(C)n1cc(-c2ccc(Oc3ccccc3)cc2)c2c(N)ncnc21`, with 18 min; and `Cc1ccc(-c2cc(C(=O)NCc3cnn(C)c3)c3cc(Br)ccc3n2)cc1`, with over 30 min.
With `NC(=O)C1CCN(c2nnc(-c3ccc(Br)cc3)s2)CC1` the figure was 7.89 min.
Molecule `COc1ccc(-n2nc(C3CCCN(C(=O)c4cccc(OC)c4)C3)[nH]c2=O)cc1` (configuration not stated) yielded a half-life of 23.4 min.
With `Cc1cc(-c2nnc3n2CCCCC3)c(C)n1-c1ccc([N+](=O)[O-])cc1` the figure was 2.5 min; with `COc1ccc(NC(=O)c2[nH]c(C)c(C(C)=O)c2C)cc1S(=O)(=O)N1CCCCC1`, 6 min; with `Cc1ccc(S(=O)(=O)Nc2ccccc2C(=O)Nc2ccc(-c3ccccc3)nn2)cc1`, 4 min.
With `Fc1ccc(Nc2nc(-n3ccnc3)nc3ccccc23)cc1F` the figure was over 30 min; with `Fc1cc(Nc2nc(-c3ccncc3)nc3ccccc23)ccc1-c1cccc(C(F)(F)F)c1`, over 30 min; with `COc1ccc(CNc2ccc(S(=O)(=O)Nc3nccs3)cc2)cc1O`, over 30 min.
Then `Cc1ccc(CSCc2ccc(C(=O)NC3CC3)o2)cc1`, with 1.7 min; and `Cc1ccc(-c2ccc(CNc3nc(-c4ccccc4C(C)C)ncc3F)cc2)cn1`, with 4.5 min; and `Nc1ncc(S(=O)(=O)N2CCN(c3ccccc3)CC2)cn1`, with 1.3 min.
In turn, `Fc1cc(Nc2nc(-c3ccncc3)nc3ccccc23)ccc1-c1cc(F)c(F)c(F)c1` displayed a half-life of over 30 min.
For the molecule `NS(=O)(=O)c1ccc(Cc2c(-c3cccc(-c4ccccc4)c3)nn(-c3nc(C(=O)O)cs3)c2CC2CC2)cc1`, the half-life is over 30 min.
For the molecule `COCCNC(=O)c1ccc(-c2ncc3cnc(-c4cccc(F)c4)cn23)cc1`, the half-life is over 30 min.
Regarding `Cc1cccc(NC(=S)N2CCN(c3cccc(C(F)(F)F)c3)CC2)c1`, the half-life was 6 min.
The molecule `CC1=C(C(=O)Nc2ccccc2)C(c2ccccc2Br)N=C(Nc2nc3ccccc3o2)N1` (configuration not stated) displayed a half-life of 27 min.
Then `COc1cccc(CNc2ccc(S(=O)(=O)Nc3ccc(C4CCNCC4)cc3)cc2)c1O`, with 29 min; and `CC(=O)NCCNC[C@@H]1C=C(C)[C@H](Cc2nnc(-c3ccccc3)o2)C[C@H]1C(C)C`, with 5.06 min.
Turning to `CCN(CC)[S+](=O)([O-])c1cc(NC(=O)c2[nH]c(C)c(C(C)=O)c2C)ccc1OC`, the half-life worked out at 4.7 min.
With `CCC(Sc1nc2ccccc2c2nc(CCc3c(C)n[nH]c3C)nn12)C(=O)Nc1ccc(F)cc1` (configuration not stated) the figure was 4.01 min; with `Cc1noc(C)c1CN1CCNc2cc(Nc3ccccc3)ncc2C1`, 5.25 min; with `CCCCOc1ccc(CNC(=O)c2cc3n(n2)CCCN(Cc2ccc(C)cc2)C3=O)cc1`, 4.33 min.
In turn, `COc1ccccc1C(=O)N1CCc2cc(-c3nc(NC(=O)Cc4ccc5c(c4)OCO5)sc3C)ccc21` gave a half-life of 9.6 min.
`Cc1c(-c2cccc3c(CCCOc4cccc5ccccc45)c(C(=O)O)n(Cc4cccnc4)c23)c(COc2ccc(N3CCN([S+](=O)([O-])N(C)C)CC3)cc2)nn1C` registered a half-life of 12 min.
Consider `COc1ccc2c(c1)CN(C(=O)CCN1CCC(Cc3ccccc3)CC1)CCS2`, for which the half-life was found to be 2.27 min.
The molecule `CCCN1CNc2c(c(=O)[nH]c(=S)n2CCc2cccc(Cl)c2Cl)C1` displayed a half-life of 2.47 min.
With `Fc1cc(Nc2nc(-c3ccncc3)nc3ccccc23)ccc1-c1ccnc(C(F)(F)F)c1` the figure was 8.6 min.
Regarding `NC(=O)C1CCN(c2nc(-c3ccc(Oc4ccccc4)cc3)cs2)CC1`, the half-life turned out to be 18.5 min.
With `CCN(CC)C(=O)c1sc2c(c1C)c(=O)n(Cc1ccccc1)c(=O)n2CC(=O)Nc1ccc(OC)cc1` the figure was 5.16 min.
Then `Cc1cnc(-c2ccccc2OC(C)C)nc1NCc1ccc(-n2ccnn2)cc1`, with 6.45 min; and `Fc1ccc(Nc2nc(-c3ccncc3F)nc3ccccc23)cc1F`, with 20 min; and `C=C[C@]1(C)C[C@@H](OC(=O)CSC(C)(C)CNC(=O)[C@H](N)C(C)C)[C@]2(C)[C@H](C)CC[C@]3(CCC(=O)[C@H]32)[C@@H](C)[C@@H]1O`, with 2.06 min.
With `O=C(Cc1c[nH]c2ncc(-c3ccc(Cl)cc3)cc12)NCc1cccnc1` the figure was 1.66 min.
`Cc1ccc(S(=O)(=O)Nc2cnccc2C(=O)Nc2ccc(-n3cncn3)cc2)cc1`: the half-life is 21 min.
With `COC(=O)[C@@H]1C[C@H](OC(C)=O)C(=O)[C@H]2[C@@]1(C)CCC1C(=O)O[C@H](c3ccoc3)C[C@@]12C` (some centres not stated) the figure was 9.8 min; with `Cc1noc(C)c1-c1ccc2ncnc(N3CCC(C(=O)O)CC3)c2c1`, over 30 min; with `CN1CCC(N(Cc2cccs2)c2ccccc2)CC1`, 1.37 min.
Then `Fc1ccc(Nc2nc(-c3ccnc(C(F)(F)F)c3)nc3ccccc23)cc1F`, with over 30 min.
With `CN(C)c1cccc(-c2nc(N3CCC(C(N)=O)CC3)ncc2F)c1`, the half-life was determined as 1.45 min.
With `Cc1ccc(S(=O)(=O)Nc2cnccc2C(=O)Nc2nc(-c3ccc(-c4ccccc4)cc3)cs2)cc1` the figure was over 30 min; with `Cc1cc(S(=O)(=O)Nc2cnccc2C(=O)Nc2nc(-c3ccccc3)cs2)c(C)o1`, 8.55 min.
